pIC50: −log10 of the molar value.
Experiments:
[1] = test system: production of CD69 by B lymphocytes in human whole blood activated with anti-human IgM; experiment: CD69 Whole Blood Assay; assay type: cell-based; conditions: Lymphocyte, anti-IgM stimulated, CD69 positive of CD20 positive cells, 20 hours
Description: Human blood is obtained from healthy volunteers, with the following restrictions: 1 week drug-free, non-smokers.
Human whole blood—HWB (100 μl) is added to each well. After mixing the plates are incubated at 37° C., 5% CO2, 100% humidity for 30 minutes. Goat F(ab′)2 anti-human IgM (10 μl of a 500 μg/ml solution, 50 μg/ml final) is added to each well (except the no-stimulus wells) with mixing and the plates are incubated for an additional 20 hours. […] Include induced control, unstained and single stains for compensation adjustments and initial voltage settings. […] Results are initially analyzed by FACS analysis software (Flow Jo).

p110 delta = biological target: T1, p110 delta (Homo sapiens, UniProt O00329); experiment: PI3K Isoform Inhibition Assay, p110 delta; assay type: biochemical; conditions: PI3K isoform inhibition assay of Example 901
T1 construct: purchased Upstate Group, Millipore; Dundee, UK
Description: (§1) PI3K enzymatic activity was assayed by measuring the amount of product phosphatidylinositol […] (PIP3) formed from substrate 4,5 phosphatidylinositol 4,5-phosphate (PIP2) using a fluorescence polarization displacement assay. The decrease in fluorescence polarization of a fluorescent PIP3 probe is measured as it is displaced from a PIP3-binding protein GRP-1 detector by PI3K-catalyzed product. […] The kinase reactions were initiated by the addition of 40 ng/mL p110α/p85α, 300 ng/mL p110β/p85α, 40 ng/mL p110γ, or 40 ng/mL […] (Upstate Group, Millipore; Dundee, UK), and 10 μM PIP2 (Echelon Biosciences) to the wells. […] After 60 minutes of incubation at room temperature to allow equilibration of labeled and unlabeled PIP3 binding, the parallel and perpendicular components of the fluorescence emissions from each sample were measured at an excitation wavelength of 530 nm and an emission wavelength of 590 nm using an Envision fluorescent plate reader with a rhodamine filter (PerkinElmer Life and Analytical Sciences; Wellesley, Mass.). The assay is capable of detecting 0.1-2.0 μM PIP3 product. The IC50 values were obtained by fitting the dose-dependent inhibition data to a 4-parameter equation using Assay Explorer software (MDL, San Ramon, Calif.).
(§2) The Formula I compound was serially diluted in 100% DMSO. The kinase reaction was incubated for 1 h at room temperature, and the reaction was terminated by the addition of PBS. IC50 values were subsequently determined using sigmoidal dose-response curve fit (variable slope).
The four Class I PI 3-kinases are cloned into baculovirus vectors as follows: […]

p110 alpha = biological target: T2, p110 alpha (Homo sapiens, UniProt P42336); experiment: PI3K Isoform Inhibition Assay, p110 alpha (delta/alpha selectivity); conditions: ratio of biochemical IC50 values
T2 construct: purchased Upstate Group, Millipore; Dundee, UK
Description: as §1, §2
The same protocol may be used to establish IC50 values for p110α (alpha) PI3K binding. […]

T2 sequence (P42336 whole entry, canonical isoform): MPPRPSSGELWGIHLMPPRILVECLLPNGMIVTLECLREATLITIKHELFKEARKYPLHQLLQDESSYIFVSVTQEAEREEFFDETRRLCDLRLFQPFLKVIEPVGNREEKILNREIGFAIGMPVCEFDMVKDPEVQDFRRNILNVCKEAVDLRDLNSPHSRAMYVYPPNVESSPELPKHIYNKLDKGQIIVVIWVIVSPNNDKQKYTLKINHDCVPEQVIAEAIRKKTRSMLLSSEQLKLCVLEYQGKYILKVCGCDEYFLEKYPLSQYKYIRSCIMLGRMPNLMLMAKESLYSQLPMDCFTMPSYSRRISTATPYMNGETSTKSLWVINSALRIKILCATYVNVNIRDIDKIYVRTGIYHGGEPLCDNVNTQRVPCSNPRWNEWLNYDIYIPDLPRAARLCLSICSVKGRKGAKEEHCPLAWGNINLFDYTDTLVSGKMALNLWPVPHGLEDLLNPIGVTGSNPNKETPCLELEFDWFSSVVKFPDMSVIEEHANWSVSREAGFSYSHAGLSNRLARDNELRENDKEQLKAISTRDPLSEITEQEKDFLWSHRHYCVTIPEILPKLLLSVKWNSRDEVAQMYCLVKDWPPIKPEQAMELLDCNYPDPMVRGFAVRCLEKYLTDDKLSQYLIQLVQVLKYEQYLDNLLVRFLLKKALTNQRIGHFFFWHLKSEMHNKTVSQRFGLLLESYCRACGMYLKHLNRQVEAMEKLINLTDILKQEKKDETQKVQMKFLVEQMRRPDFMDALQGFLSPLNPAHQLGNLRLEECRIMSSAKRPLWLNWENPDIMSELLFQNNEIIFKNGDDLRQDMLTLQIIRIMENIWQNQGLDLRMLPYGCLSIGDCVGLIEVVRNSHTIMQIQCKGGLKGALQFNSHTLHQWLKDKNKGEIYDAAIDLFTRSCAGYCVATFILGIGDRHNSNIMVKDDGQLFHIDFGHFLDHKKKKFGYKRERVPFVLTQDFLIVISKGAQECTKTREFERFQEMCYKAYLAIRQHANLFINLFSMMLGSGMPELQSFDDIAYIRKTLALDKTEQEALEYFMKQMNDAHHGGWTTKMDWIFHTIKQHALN
T2 sequence (P27986 whole entry partner, canonical isoform): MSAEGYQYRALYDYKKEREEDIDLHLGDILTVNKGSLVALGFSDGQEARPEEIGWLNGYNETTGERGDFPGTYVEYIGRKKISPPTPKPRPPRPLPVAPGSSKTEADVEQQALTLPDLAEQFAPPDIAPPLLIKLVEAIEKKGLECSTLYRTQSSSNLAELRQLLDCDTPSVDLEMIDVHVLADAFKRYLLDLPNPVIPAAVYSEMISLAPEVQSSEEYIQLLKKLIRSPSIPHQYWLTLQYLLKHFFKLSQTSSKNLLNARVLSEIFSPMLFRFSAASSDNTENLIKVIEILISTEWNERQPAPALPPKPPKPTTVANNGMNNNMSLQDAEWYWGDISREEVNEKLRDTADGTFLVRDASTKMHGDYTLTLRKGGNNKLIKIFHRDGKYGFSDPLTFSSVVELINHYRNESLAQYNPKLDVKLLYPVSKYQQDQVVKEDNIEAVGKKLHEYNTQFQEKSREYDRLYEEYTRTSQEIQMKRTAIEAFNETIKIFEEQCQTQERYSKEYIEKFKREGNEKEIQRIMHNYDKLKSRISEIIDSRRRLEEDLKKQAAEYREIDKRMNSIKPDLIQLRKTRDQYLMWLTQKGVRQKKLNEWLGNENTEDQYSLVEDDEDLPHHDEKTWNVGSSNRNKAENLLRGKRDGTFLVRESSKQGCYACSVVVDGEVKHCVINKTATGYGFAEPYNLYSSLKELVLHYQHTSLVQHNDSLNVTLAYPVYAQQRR
T1 sequence (O00329 whole entry, canonical isoform): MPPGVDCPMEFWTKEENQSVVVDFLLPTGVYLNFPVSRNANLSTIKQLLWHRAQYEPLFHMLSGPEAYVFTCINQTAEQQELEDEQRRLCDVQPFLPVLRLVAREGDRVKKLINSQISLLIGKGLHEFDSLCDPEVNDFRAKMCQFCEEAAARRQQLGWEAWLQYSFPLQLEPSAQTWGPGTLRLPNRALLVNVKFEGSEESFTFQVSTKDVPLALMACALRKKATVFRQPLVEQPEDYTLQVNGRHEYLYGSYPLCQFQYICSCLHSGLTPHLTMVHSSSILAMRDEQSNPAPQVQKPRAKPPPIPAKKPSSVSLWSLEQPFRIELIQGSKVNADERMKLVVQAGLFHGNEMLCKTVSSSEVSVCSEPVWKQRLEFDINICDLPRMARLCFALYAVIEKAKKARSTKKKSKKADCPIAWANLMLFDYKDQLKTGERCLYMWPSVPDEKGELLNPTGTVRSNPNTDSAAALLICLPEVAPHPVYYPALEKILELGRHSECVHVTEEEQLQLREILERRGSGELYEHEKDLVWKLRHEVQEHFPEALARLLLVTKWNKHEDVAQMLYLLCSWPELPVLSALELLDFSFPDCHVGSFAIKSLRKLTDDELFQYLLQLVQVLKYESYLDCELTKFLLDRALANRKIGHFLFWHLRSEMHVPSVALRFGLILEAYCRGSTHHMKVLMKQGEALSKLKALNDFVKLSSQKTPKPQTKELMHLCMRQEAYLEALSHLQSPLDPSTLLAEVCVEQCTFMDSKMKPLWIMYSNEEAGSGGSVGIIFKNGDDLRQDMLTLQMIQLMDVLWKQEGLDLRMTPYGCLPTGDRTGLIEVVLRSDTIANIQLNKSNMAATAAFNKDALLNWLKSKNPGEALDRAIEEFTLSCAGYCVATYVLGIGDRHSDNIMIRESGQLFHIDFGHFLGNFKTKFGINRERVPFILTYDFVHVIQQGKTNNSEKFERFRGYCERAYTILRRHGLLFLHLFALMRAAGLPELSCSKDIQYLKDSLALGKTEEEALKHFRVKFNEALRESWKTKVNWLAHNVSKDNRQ
T1 sequence (P27986 whole entry partner, canonical isoform): as the sequence (P27986 whole entry partner, canonical isoform) above

Structure (SMILES)	pIC50 [1]	pIC50 (p110 delta)	IC50 p110 alpha/IC50 p110 delta (p110 alpha)
CC(C)(O)C1CCN(Cc2ccc3nc(-n4c(C5CC5)nc5ccccc54)nc(N4CCOCC4)c3n2)CC1 [Compound 102, 2-(1-((2-(2-cyclopropyl-1H-benzo[d]imidazol-1-yl)-4-morpholinopyrido[3,2-d]pyrimidin-6-yl)methyl)piperidin-4-yl)propan-2-ol]		8.10	71
CC(C)(O)C1CCN(Cc2ccc3nc(-c4c[nH]c5ccccc45)nc(N4CCOCC4)c3n2)CC1 [Compound 133, 2-(1-((2-(1H-indol-3-yl)-4-morpholinopyrido[3,2-d]pyrimidin-6-yl)methyl)piperidin-4-yl)propan-2-ol]		7.62	22
Cc1cc(-c2nc(N3CCOCC3)c3nc(CN4CCC(C(C)(C)O)CC4)ccc3n2)cnc1N [Compound 132, 2-(1-((2-(6-amino-5-methylpyridin-3-yl)-4-morpholinopyrido[3,2-d]pyrimidin-6-yl)methyl)piperidin-4-yl)propan-2-ol]		7.65	10
CC(C)c1nc2ccccc2n1-c1nc(N2CCOCC2)c2nc(CN3CC(C4CCOCC4)C3)ccc2n1 [Compound 113, 4-(2-(2-isopropyl-1H-benzo[d]imidazol-1-yl)-6-((3-(tetrahydro-2H-pyran-4-yl)azetidin-1-yl)methyl)pyrido[3,2-d]pyrimidin-4-yl)morpholine]		8.07	28.4
CC(C)(O)C1CCN(Cc2ccc3nc(-n4ccc5ccccc54)nc(N4CCOCC4)c3n2)CC1 [Compound 128, 2-(1-((2-(1H-indol-1-yl)-4-morpholinopyrido[3,2-d]pyrimidin-6-yl)methyl)piperidin-4-yl)propan-2-ol]		7.09	26
Cc1cnc2c(N3CCOCC3)nc(-c3cnc(N)nc3)nc2c1 [Compound 197, 5-(7-methyl-4-morpholinopyrido[3,2-d]pyrimidin-2-yl)pyrimidin-2-amine]		8.24	0.20
Fc1ccc2[nH]ccc2c1-c1ccc2nc(N3CCOCC3)nc(N3CCOCC3)c2n1 [Compound 159, 4,4′-(6-(5-fluoro-1H-indol-4-yl)pyrido[3,2-d]pyrimidine-2,4-diyl)dimorpholine]		6.06	1.4
CC(C)(O)C1CCN(Cc2ccc3nc(-c4cccc5nccn45)nc(N4CCOCC4)c3n2)CC1 [Compound 161, 2-(1-((2-(imidazo[1,2-a]pyridin-5-yl)-4-morpholinopyrido[3,2-d]pyrimidin-6-yl)methyl)piperidin-4-yl)propan-2-ol]		6.93	17.8
Cc1cc2ccccc2n1-c1nc(N2CCOCC2)c2nc(CN3CCC(C(C)(C)O)CC3)ccc2n1 [Compound 135, 2-(1-((2-(2-methyl-1H-indol-1-yl)-4-morpholinopyrido[3,2-d]pyrimidin-6-yl)methyl)piperidin-4-yl)propan-2-ol]		7.59	82
CC(C)(O)C1CCN(C(=O)c2ccc3nc(-c4c(F)ccc5[nH]ccc45)nc(N4CCOCC4)c3n2)CC1 [Compound 118, (2-(5-fluoro-1H-indol-4-yl)-4-morpholinopyrido[3,2-d]pyrimidin-6-yl)(4-(2-hydroxypropan-2-yl)piperidin-1-yl)methanone]		7.89	77
CC(C)(O)C1CCN(Cc2ccc3nc(-c4ccc(N)nc4)nc(N4CCOCC4)c3n2)CC1 [Compound 122, 2-(1-((2-(6-aminopyridin-3-yl)-4-morpholinopyrido[3,2-d]pyrimidin-6-yl)methyl)piperidin-4-yl)propan-2-ol]		8.27	15
COC1CN(c2cnc3c(N4CCOCC4)nc(N4CC(OC)C4)nc3c2)C1 [Compound 199, 4-(2,7-bis(3-methoxyazetidin-1-yl)pyrido[3,2-d]pyrimidin-4-yl)morpholine]		6.14	0.95
CC(C)c1nc2ccccc2n1-c1nc(N2CCOCC2)c2nc(C(=O)N3CCC(C(C)(C)O)CC3)ccc2n1 [Compound 119, (4-(2-hydroxypropan-2-yl)piperidin-1-yl)(2-(2-isopropyl-1H-benzo[d]imidazol-1-yl)-4-morpholinopyrido[3,2-d]pyrimidin-6-yl)methanone]		7.06	15
CNc1ncccc1-c1nc(N2CCOCC2)c2nc(CN3CCC(C(C)(C)O)CC3)ccc2n1 [Compound 160, 2-(1-((2-(2-(methylamino)pyridin-3-yl)-4-morpholinopyrido[3,2-d]pyrimidin-6-yl)methyl)piperidin-4-yl)propan-2-ol]		7.01	21
Cc1nc2ccccc2n1-c1nc(N2CCOCC2)c2nc(CN3CCC(C(C)(C)O)CC3)ccc2n1 [Compound 101, 2-(1-((2-(2-methyl-1H-benzo[d]imidazol-1-yl)-4-morpholinopyrido[3,2-d]pyrimidin-6-yl)methyl)piperidin-4-yl)propan-2-ol]		7.90	33

The remaining compounds from weak to strong by pIC50 (p110 delta), led by results:

pIC50 [1]	pIC50 (p110 delta)	IC50 p110 alpha/IC50 p110 delta (p110 alpha)	Structure (SMILES)
7.08	8.27	44	CC(C)c1nc2ccccc2n1-c1nc(N2CCOCC2)c2nc(CN3CCC(C(C)(C)O)CC3)ccc2n1 [Compound 112, 2-(1-((2-(2-isopropyl-1H-benzo[d]imidazol-1-yl)-4-morpholinopyrido[3,2-d]pyrimidin-6-yl)methyl)piperidin-4-yl)propan-2-ol]
	8.54	42	CC(C)(O)C1CCN(Cc2ccc3nc(-n4c(C(F)(F)F)nc5ccccc54)nc(N4CCOCC4)c3n2)CC1 [Compound 156, 2-(1-((4-morpholino-2-(2-(trifluoromethyl)-1H-benzo[d]imidazol-1-yl)pyrido[3,2-d]pyrimidin-6-yl)methyl)piperidin-4-yl)propan-2-ol]
	8.55	>350	CC(C)(O)C1CCN(Cc2ccc3nc(-c4cccc5[nH]ccc45)nc(N4CCOCC4)c3n2)CC1 [Compound 109, 2-(1-((2-(1H-indol-4-yl)-4-morpholinopyrido[3,2-d]pyrimidin-6-yl)methyl)piperidin-4-yl)propan-2-ol]
	8.64	45	CC(F)(F)c1nc2ccccc2n1-c1nc(N2CCOCC2)c2nc(CN3CCC(C(C)(C)O)CC3)ccc2n1 [Compound 120, 2-(1-((2-(2-(1,1-difluoroethyl)-1H-benzo[d]imidazol-1-yl)-4-morpholinopyrido[3,2-d]pyrimidin-6-yl)methyl)piperidin-4-yl)propan-2-ol]
	8.65	36	CCc1nc2ccccc2n1-c1nc(N2CCOCC2)c2nc(CN3CC(N4CCOCC4)C3)ccc2n1 [Compound 131, 4-(1-((2-(2-ethyl-1H-benzo[d]imidazol-1-yl)-4-morpholinopyrido[3,2-d]pyrimidin-6-yl)methyl)azetidin-3-yl)morpholine]
	8.69	14	CC(C)(C(N)=O)N1CCN(Cc2ccc3nc(-c4ccc(N)nc4)nc(N4CCOCC4)c3n2)CC1 [Compound 124, 2-(4-((2-(6-aminopyridin-3-yl)-4-morpholinopyrido[3,2-d]pyrimidin-6-yl)methyl)piperazin-1-yl)-2-methylpropanamide]
7.92	8.75	53	CO[C@@H](C)c1nc2ccccc2n1-c1nc(N2CCOCC2)c2nc(CN3CCC(C(C)(C)O)CC3)ccc2n1 [Compound 114, (S)-2-(1-((2-(2-(1-methoxyethyl)-1H-benzo[d]imidazol-1-yl)-4-morpholinopyrido[3,2-d]pyrimidin-6-yl)methyl)piperidin-4-yl)propan-2-ol]
	8.82	246	Fc1ccc2[nH]ccc2c1-c1nc(N2CCOCC2)c2nc(CN3CC(N4CCC(F)(F)CC4)C3)ccc2n1 [Compound 125, 4-(6-((3-(4,4-difluoropiperidin-1-yl)azetidin-1-yl)methyl)-2-(5-fluoro-1H-indol-4-yl)pyrido[3,2-d]pyrimidin-4-yl)morpholine]
	9.07	440	O=S1(=O)CCN(C2CN(Cc3ccc4nc(-c5c(F)ccc6[nH]ccc56)nc(N5CCOCC5)c4n3)C2)CC1 [Compound 129, 4-(2-(5-fluoro-1H-indol-4-yl)-6-((3-(1,1-dioxo)thiomorpholinoazetidin-1-yl)methyl)pyrido[3,2-d]pyrimidin-4-yl)morpholine]

Source: US8563540B2, “Pyrido[3,2-d]pyrimidine PI3K delta inhibitor compounds and methods of use” (Genetech, Inc., priority 2010, dated 2013)
